Assay results taken from patent US20230072854A1, “PARAXANTHINE-BASED BIOACTIVE COMPOSITION AND METHOD OF USE THEREOF” (Ingenious Ingredients, LP, priority 2020, published 2023).
“Also recorded” adds a separate entry of the source.

Columns and labels:
Type in all cases: in vivo, human
[1] = system: subjects; experiment: Paraxanthine pre-workout, subject reports; settings: single subject, own words
Experimental: Health subjects were administered paraxanthine and asked to report their experience. Subjects reported the following.

[2] = system: volunteers; experiment: Go/No-Go test, double blind crossover vs placebo; settings: 200 mg; for Response Time Average: in ms (unit assumed)
Description: (§1) In a double blind, randomized, crossover, and repeated measures manner, 13 volunteers (10 male, 3 female, average age 24±5 years, average body weight 72.91±19.30 kg, average height 169.96±11.84 cm, average BMI 24.80±3.71 kg/m^2) participated in this study. Participants limited ingestion of caffeine and other stimulants to normal use for 48-hours, fasted for 8-hours and reported to the lab and completed 4 different cognitive function tests to assess short-term attention and inhibitory control (Go-No Go Test), sustained attention (Vigilance Task Test), working memory (Sternberg Task Test) and cognitive flexibility (Berg-Washington Card Sorting Test). Once completed, the participants ingested either a placebo or 200 mg of paraxanthine (WGI, TX, USA) with 8 ounces of water. Participants repeated cognitive function tests 1, 2, 3, 4, 5, and 6 hours after ingestion of the supplement. After one-week participants repeated the experiment while consuming the other treatment.
(§2) Data were analyzed by a General Linear Model multivariate and univariate analyses with repeated measures using body weight as a covariate. Data are expressed as means±standard deviations for the placebo (PLA) and Paraxanthine (PrX). Greenhouse-Geisser univariate p-levels are listed for time (T), weight×time (W×T) and group×time (G×T) interactions effects. Pairwise comparison is indicated by the following superscripts: †=[…] difference from baseline value; *=[…] difference from baseline; a=[…] difference between groups; b=[…] difference between groups. Eta2 vaules of […] are considered small, […] medium, and >0.14 are considered large.
A test of sustained attention and response control (i.e., attention/inhibition). Lower response times represents better ability to pay attention and inhibitory control.

[3] = system: volunteers; experiment: Sternberg task test, double blind crossover vs placebo; settings: 200 mg; for Sternberg Mean Response Time: in ms (unit assumed)
Description: as §1, §2
A test of working memory, ability to make use of short-term memory. A lower reaction time means participants can access their working memory faster. The Sternberg Task test is a widely used paradigm for studying short-term/working memory (STM/WM) involving cognitive control processes.

Cn1c(=O)[nH]c2ncn(C)c2c1=O [paraxanthine, 1,7-dimethylxanthine]
experience reported by subject [1]: happier, better, more energy and focused; also recorded: phenomenal; also recorded: clean energy, but not stressed or stimmed; also recorded: it works
Round 1 Condition P mean response time (FIG. 6) [2]: no significant differences over time or between treatments
percentage of correct answers, in words [2]: maintained percentage of correct answers
Correct Response Mean Accuracy (%) ([2]; Mean (SEM) over all hours): 92.5%
Round 1: Condition P Mean - Response Time (Millisecond) ([2]; Mean (SEM) over all hours): 394.55 ± 18.07 Millisecond
Round 2: Condition P Mean - Response Time (Millisecond) ([2]; Mean (SEM) over all hours): 356.55 ± 18.00 Millisecond
Round 2: Condition R Mean - Response Time (Millisecond) ([2]; Mean (SEM) over all hours): 396.32 ± 20.27 Millisecond
Response Time Average ([2]; Mean (SEM) over all hours): 374.94 ± 17.45
Correct Response Mean Accuracy (%) ([2]; Mean (SEM) over all hours, listed as PX): 92.5 ± 1.3%
response times to correctly respond compared to PLA ([2]; acute): faster response times
Correct Response Mean Accuracy (%) ([2]; hour 0 (before ingestion)): 93.0 ± 2.9%
Round 1: Condition P Mean - Response Time (Millisecond) ([2]; hour 0 (before ingestion)): 392.29 ± 44.29 Millisecond
Round 1: Condition R Mean - Response Time (Millisecond) ([2]; hour 0 (before ingestion)): 344.30 ± 70.08 Millisecond
Round 2: Condition P Mean - Response Time (Millisecond) ([2]; hour 0 (before ingestion)): 345.19 ± 37.11 Millisecond
Round 2: Condition R Mean - Response Time (Millisecond) ([2]; hour 0 (before ingestion)): 401.46 ± 52.36 Millisecond
Response Time Average ([2]; hour 0 (before ingestion)): 373.88 ± 43.64
Correct Response Mean Accuracy (%) ([2]; hour 1 after ingestion): 93.7 ± 2.3%
Round 1: Condition P Mean - Response Time (Millisecond) ([2]; hour 1 after ingestion): 387.51 ± 38.34 Millisecond
Round 1: Condition R Mean - Response Time (Millisecond) ([2]; hour 1 after ingestion): 336.24 ± 73.85 Millisecond
Round 2: Condition P Mean - Response Time (Millisecond) ([2]; hour 1 after ingestion): 346.39 ± 47.07 Millisecond
Round 2: Condition R Mean - Response Time (Millisecond) ([2]; hour 1 after ingestion): 390.30 ± 41.57 Millisecond
Response Time Average ([2]; hour 1 after ingestion): 366.68 ± 36.59
Correct Response Mean Accuracy (%) ([2]; hour 2 after ingestion): 92.9 ± 3.6%
Round 1: Condition P Mean - Response Time (Millisecond) ([2]; hour 2 after ingestion): 392.71 ± 38.09 Millisecond
Round 1: Condition R Mean - Response Time (Millisecond) ([2]; hour 2 after ingestion): 347.17 ± 59.16 Millisecond
Round 2: Condition P Mean - Response Time (Millisecond) ([2]; hour 2 after ingestion): 352.72 ± 46.18 Millisecond
Round 2: Condition R Mean - Response Time (Millisecond) ([2]; hour 2 after ingestion): 389.31 ± 39.82 Millisecond
Response Time Average ([2]; hour 2 after ingestion): 371.09 ± 30.25
Correct Response Mean Accuracy (%) ([2]; hour 3 after ingestion): 91.7%
Round 1: Condition P Mean - Response Time (Millisecond) ([2]; hour 3 after ingestion): 402.18 Millisecond
Round 1: Condition R Mean - Response Time (Millisecond) ([2]; hour 3 after ingestion): 360.11 Millisecond
Round 2: Condition P Mean - Response Time (Millisecond) ([2]; hour 3 after ingestion): 372.09 Millisecond
Round 2: Condition R Mean - Response Time (Millisecond) ([2]; hour 3 after ingestion): 401.47 Millisecond
Response Time Average ([2]; hour 3 after ingestion): 384.07
Correct Response Mean Accuracy (%) ([2]; hour 4 after ingestion): 91.3%
Round 1: Condition P Mean - Response Time (Millisecond) ([2]; hour 4 after ingestion): 387.65 Millisecond
Round 1: Condition R Mean - Response Time (Millisecond) ([2]; hour 4 after ingestion): 350.94 Millisecond
Round 2: Condition P Mean - Response Time (Millisecond) ([2]; hour 4 after ingestion): 362.02 Millisecond
Round 2: Condition R Mean - Response Time (Millisecond) ([2]; hour 4 after ingestion): 399.45 Millisecond
Response Time Average ([2]; hour 4 after ingestion): 375.03
Correct Response Mean Accuracy (%) ([2]; hour 5 after ingestion): 93.1%
Round 1: Condition P Mean - Response Time (Millisecond) ([2]; hour 5 after ingestion): 406.70 Millisecond
Round 1: Condition R Mean - Response Time (Millisecond) ([2]; hour 5 after ingestion): 365.08 Millisecond
Round 2: Condition P Mean - Response Time (Millisecond) ([2]; hour 5 after ingestion): 359.18 Millisecond
Round 2: Condition R Mean - Response Time (Millisecond) ([2]; hour 5 after ingestion): 405.58 Millisecond
Response Time Average ([2]; hour 5 after ingestion): 383.60
Correct Response Mean Accuracy (%) ([2]; hour 6 after ingestion): 91.6 ± 4.4%
Round 1: Condition P Mean - Response Time (Millisecond) ([2]; hour 6 after ingestion): 393.51 ± 53.02 Millisecond
Round 1: Condition R Mean - Response Time (Millisecond) ([2]; hour 6 after ingestion): 352.14 ± 56.48 Millisecond
Round 2: Condition P Mean - Response Time (Millisecond) ([2]; hour 6 after ingestion): 357.05 ± 99.19 Millisecond
Round 2: Condition R Mean - Response Time (Millisecond) ([2]; hour 6 after ingestion): 387.41 ± 53.47 Millisecond
Response Time Average ([2]; hour 6 after ingestion): 371.27 ± 53.76
average response time (FIG. 10) ([2]; round 1+round 2): maintained mean response time over time
Round 1 Condition R mean response time (FIG. 7) ([2]; round 1, vs PLA): better maintained mean response time over time compared to PLA
Round 2 Condition P mean response time (FIG. 8) ([2]; round 2, vs PLA): better maintained mean response time over time compared to PLA
Round 2 Condition R mean response time (FIG. 9) ([2]; round 2, vs PLA): non-significantly better maintained mean response time over time compared to PLA
change of mean response times ([2]; vs baseline): −0.3%
decrease of correct responses in comparison to baseline ([2]; vs baseline): 0.5%
Mean Correct Responses higher compared to placebo ([2]; vs placebo): 1.1%
letter length 2 present reaction time (FIG. 18) [3]: significantly improved reaction times
letter length 4 absent reaction time (FIG. 16) [3]: no significant differences over time or between treatments
letter length 4 present reaction time (FIG. 19) [3]: no significant differences over time or between treatments, with Paraxanthine showing greater improvements during hours 3-6
letter length 6 absent reaction time (FIG. 17) [3]: no significant differences over time or between treatments, with Paraxanthine showing greater improvement during hours 3-5
Letter Length 2: Absent Reaction Time (Millisecond) ([3]; Mean (SEM) over all hours): 577.6 ± 27.1 Millisecond
Letter Length 2: Present Reaction Time (Millisecond) ([3]; Mean (SEM) over all hours): 503.5 ± 17.8 Millisecond
Letter Length 4: Absent Reaction Time (Millisecond) ([3]; Mean (SEM) over all hours): 741.3 ± 40.0 Millisecond
Letter Length 4: Present Reaction Time (Millisecond) ([3]; Mean (SEM) over all hours): 617.9 ± 25.1 Millisecond
Letter Length 6: Absent Reaction Time (Millisecond) ([3]; Mean (SEM) over all hours): 970.0 ± 55.7 Millisecond
Letter Length 6: Present Reaction Time (Millisecond) ([3]; Mean (SEM) over all hours): 808.2 ± 40.2 Millisecond
Sternberg Mean Response Time ([3]; Mean (SEM) over all hours): 703.1 ± 32.4
short-term/working memory, letter length 6 present reaction time ([3]; after 4 and 5 hours): significantly increased short-term/working memory
Letter Length 2: Absent Reaction Time (Millisecond) ([3]; hour 0 (before ingestion)): 621.9 ± 154.3 Millisecond
Letter Length 2: Present Reaction Time (Millisecond) ([3]; hour 0 (before ingestion)): 541.1 ± 104.2 Millisecond
Letter Length 4: Absent Reaction Time (Millisecond) ([3]; hour 0 (before ingestion)): 748.7 ± 148.5 Millisecond
Letter Length 4: Present Reaction Time (Millisecond) ([3]; hour 0 (before ingestion)): 625.9 ± 100.6 Millisecond
Letter Length 6: Absent Reaction Time (Millisecond) ([3]; hour 0 (before ingestion)): 1,012.5 ± 334.2 Millisecond
Letter Length 6: Present Reaction Time (Millisecond) ([3]; hour 0 (before ingestion)): 841.6 ± 254.0 Millisecond
Sternberg Mean Response Time ([3]; hour 0 (before ingestion)): 731.9 ± 163.0
Letter Length 2: Absent Reaction Time (Millisecond) ([3]; hour 1 after ingestion): 596.7 Millisecond
Letter Length 2: Present Reaction Time (Millisecond) ([3]; hour 1 after ingestion): 516.6 Millisecond
Letter Length 4: Absent Reaction Time (Millisecond) ([3]; hour 1 after ingestion): 755.5 Millisecond
Letter Length 4: Present Reaction Time (Millisecond) ([3]; hour 1 after ingestion): 642.9 Millisecond
Letter Length 6: Absent Reaction Time (Millisecond) ([3]; hour 1 after ingestion): 986.5 Millisecond
Letter Length 6: Present Reaction Time (Millisecond) ([3]; hour 1 after ingestion): 829.7 Millisecond
Sternberg Mean Response Time ([3]; hour 1 after ingestion): 721.3
Letter Length 2: Absent Reaction Time (Millisecond) ([3]; hour 2 after ingestion): 579.7 Millisecond
Letter Length 2: Present Reaction Time (Millisecond) ([3]; hour 2 after ingestion): 503.8 Millisecond
Letter Length 4: Absent Reaction Time (Millisecond) ([3]; hour 2 after ingestion): 758.4 Millisecond
Letter Length 4: Present Reaction Time (Millisecond) ([3]; hour 2 after ingestion): 614.7 Millisecond
Letter Length 6: Absent Reaction Time (Millisecond) ([3]; hour 2 after ingestion): 1,011.3 Millisecond
Letter Length 6: Present Reaction Time (Millisecond) ([3]; hour 2 after ingestion): 800.0 Millisecond
Sternberg Mean Response Time ([3]; hour 2 after ingestion): 711.3
letter length 2 absent reaction time (FIG. 15) ([3]; hour 3, 4 and 5): trend towards improved reaction times
Letter Length 2: Absent Reaction Time (Millisecond) ([3]; hour 3 after ingestion): 559.3 Millisecond
Letter Length 2: Present Reaction Time (Millisecond) ([3]; hour 3 after ingestion): 497.1 Millisecond
Letter Length 4: Absent Reaction Time (Millisecond) ([3]; hour 3 after ingestion): 762.3 Millisecond
Letter Length 4: Present Reaction Time (Millisecond) ([3]; hour 3 after ingestion): 634.6 Millisecond
Letter Length 6: Absent Reaction Time (Millisecond) ([3]; hour 3 after ingestion): 980.9 Millisecond
Letter Length 6: Present Reaction Time (Millisecond) ([3]; hour 3 after ingestion): 830.6 Millisecond
Sternberg Mean Response Time ([3]; hour 3 after ingestion): 710.8
Letter Length 2: Absent Reaction Time (Millisecond) ([3]; hour 4 after ingestion): 553.8 Millisecond
Letter Length 2: Present Reaction Time (Millisecond) ([3]; hour 4 after ingestion): 488.3 Millisecond
Letter Length 4: Absent Reaction Time (Millisecond) ([3]; hour 4 after ingestion): 701.3 Millisecond
Letter Length 4: Present Reaction Time (Millisecond) ([3]; hour 4 after ingestion): 598.2 Millisecond
Letter Length 6: Absent Reaction Time (Millisecond) ([3]; hour 4 after ingestion): 914.8 Millisecond
Letter Length 6: Present Reaction Time (Millisecond) ([3]; hour 4 after ingestion): 778.1 Millisecond
Sternberg Mean Response Time ([3]; hour 4 after ingestion): 672.4
Letter Length 2: Absent Reaction Time (Millisecond) ([3]; hour 5 after ingestion): 558.8 Millisecond
Letter Length 2: Present Reaction Time (Millisecond) ([3]; hour 5 after ingestion): 490.3 Millisecond
Letter Length 4: Absent Reaction Time (Millisecond) ([3]; hour 5 after ingestion): 717.5 Millisecond
Letter Length 4: Present Reaction Time (Millisecond) ([3]; hour 5 after ingestion): 617.1 Millisecond
Letter Length 6: Absent Reaction Time (Millisecond) ([3]; hour 5 after ingestion): 913.5 Millisecond
Letter Length 6: Present Reaction Time (Millisecond) ([3]; hour 5 after ingestion): 761.8 Millisecond
Sternberg Mean Response Time ([3]; hour 5 after ingestion): 676.5
Letter Length 2: Absent Reaction Time (Millisecond) ([3]; hour 6 after ingestion): 568.9 Millisecond
Letter Length 2: Present Reaction Time (Millisecond) ([3]; hour 6 after ingestion): 483.8 Millisecond
Letter Length 4: Absent Reaction Time (Millisecond) ([3]; hour 6 after ingestion): 742.2 Millisecond
Letter Length 4: Present Reaction Time (Millisecond) ([3]; hour 6 after ingestion): 590.3 Millisecond
Letter Length 6: Absent Reaction Time (Millisecond) ([3]; hour 6 after ingestion): 970.7 Millisecond
Letter Length 6: Present Reaction Time (Millisecond) ([3]; hour 6 after ingestion): 816.4 Millisecond
Sternberg Mean Response Time ([3]; hour 6 after ingestion): 695.4
letter length 6 present reaction time (FIG. 20) ([3]; hours 4 and 5): improved present reaction time
decrease of mean response times in the Sternberg Test compared to baseline ([3]; overall, vs baseline): 3.9%
